Test results taken from ChEMBL document CHEMBL4043224, “d-Amino acid mutation of PMI as potent dual peptide inhibitors of p53-MDM2/MDMX interactions” (Bioorg Med Chem Lett, 2017).

Experiments:
[1] = Cytotoxicity against human U87 cells assessed as reduction in cell viability after 24 hrs by MTT assay; conditions: U-87 MG
[2] = target: T1, Cathepsin G (Homo sapiens, UniProt P08311); assay: Drug metabolism assessed as cathepsin G (unknown origin)-mediated compound hydrolysis after 8 hrs by RP-HPLC analysis; type: ADME
T1 sequence (P08311 whole entry): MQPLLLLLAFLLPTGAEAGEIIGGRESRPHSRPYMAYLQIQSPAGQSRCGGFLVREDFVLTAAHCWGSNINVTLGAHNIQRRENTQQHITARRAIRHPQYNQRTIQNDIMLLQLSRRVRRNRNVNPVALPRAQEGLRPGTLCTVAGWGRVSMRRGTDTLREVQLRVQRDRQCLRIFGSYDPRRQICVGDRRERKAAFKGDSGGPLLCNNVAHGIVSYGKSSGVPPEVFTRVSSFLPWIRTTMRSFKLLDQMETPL

[3] = target: T1, Cathepsin G; assay: Drug metabolism assessed as cathepsin G (unknown origin)-mediated compound hydrolysis after 4 hrs by RP-HPLC analysis; type: ADME

Molecule | IC50 [1] [µM] | Drug metabolism [2] | Drug metabolism [3]
COc1ccc(C2=N[C@H](c3ccc(Cl)cc3)[C@H](c3ccc(Cl)cc3)N2C(=O)N2CCNC(=O)C2)c(OC(C)C)c1 | 5.93 |  | 
CC(C)C[C@H](NC(=O)[C@H](CC(N)=O)NC(=O)[C@H](Cc1c[nH]c2ccccc12)NC(=O)[C@H](Cc1ccc(O)cc1)NC(=O)[C@H](CCC(=O)O)NC(=O)[C@H](C)NC(=O)[C@H](Cc1ccccc1)NC(=O)[C@H](CO)NC(=O)[C@@H](N)[C@@H](C)O)C(=O)N[C@@H](CC(C)C)C(=O)N[C@H](Cc1ccc(O)cc1)C(=O)N1CCC[C@H]1C(=O)O | 30.9 |  | 
CC(C)C[C@H](NC(=O)[C@H](CC(N)=O)NC(=O)[C@H](Cc1c[nH]c2ccccc12)NC(=O)[C@H](Cc1ccc(O)cc1)NC(=O)[C@H](CCC(=O)O)NC(=O)[C@H](C)NC(=O)[C@H](Cc1ccccc1)NC(=O)[C@H](CO)NC(=O)[C@@H](N)[C@@H](C)O)C(=O)N[C@@H](CC(C)C)C(=O)N[C@@H](C(=O)N1CCC[C@H]1C(=O)O)[C@H](C)O | 45.7 |  | 
CC(C)C[C@H](NC(=O)[C@H](CC(N)=O)NC(=O)[C@H](Cc1c[nH]c2ccccc12)NC(=O)[C@H](Cc1ccc(O)cc1)NC(=O)[C@H](CCC(=O)O)NC(=O)[C@H](C)NC(=O)[C@H](Cc1ccccc1)NC(=O)[C@H](CO)NC(=O)[C@@H](N)[C@@H](C)O)C(=O)N[C@@H](CC(C)C)C(=O)N[C@H](Cc1ccccc1)C(=O)N1CCC[C@H]1C(=O)O | 54.3 | Metabolite_Detected | 
CC(C)C[C@H](NC(=O)[C@H](CC(N)=O)NC(=O)[C@H](Cc1c[nH]c2ccccc12)NC(=O)[C@H](Cc1ccc(O)cc1)NC(=O)[C@H](CCC(=O)O)NC(=O)[C@H](C)NC(=O)[C@H](Cc1ccccc1)NC(=O)[C@H](CO)NC(=O)[C@@H](N)[C@@H](C)O)C(=O)N[C@@H](CC(C)C)C(=O)N[C@H](Cc1cnc[nH]1)C(=O)N1CCC[C@H]1C(=O)O | 43.5 |  | 
H-TSFAEYWNLLSP-OH | 67.6 |  | Metabolite_Detected
